Where two headings read alike, the source gives them in different places.
System: Streptococcus mutans (NBRC13955)
Format: cell-based
Details: Cont. group = 100
Method: The Streptococcus mutans was cultured in Todd-Hewitt Broth at 37° C. overnight (approximately 16 hours), and proliferated until the absorbance OD660 measured at 660 nm reached to a value in the range from 0.8 to 1.4. The Streptococcus mutans proliferated was used. Based on the absorbance measured, the Streptococcus mutans was diluted with PBS such that OD660 was 0.125, to prepare a bacterial culture to be used in the following test.
The Codium fragile extract liquid was diluted with PBS to have a concentration of 1%, and then used in the following test.
Each antibacterial agent used in the test was prepared to have a concentration that was two times a test concentration for mixing of the antibacterial agent with the Codium fragile extract liquid, a fraction having a predetermined molecular weight, or PBS at 1:1.
As a CPC solution, a stock solution (2% CPC) was obtained by dissolving 0.2 g of CPC in 10 mL of ethanol solution. This solution was diluted 20-fold with purified water to prepare a 0.1% CPC (5% ethanol) solution. This solution was further diluted with a 5% ethanol solution to prepare 0.05% CPC (5% ethanol) and 0.02% CPC (5% ethanol).
As a benzalkonium chloride solution, a stock solution (2% benzalkonium chloride) was obtained by dissolving 0.2 g of benzalkonium chloride in 10 mL of ethanol solution. This solution was diluted 5-fold with ethanol to prepare an ethanol solution of 0.4% benzalkonium chloride solution. This solution was diluted 20-fold with purified water to prepare 0.02% benzalkonium chloride (5% ethanol). This was further diluted 2-fold with a 5% ethanol solution to prepare a 0.01% benzalkonium chloride (5% ethanol) solution. This solution was diluted 2 times with a 5% ethanol solution to prepare a 0.005% benzalkonium chloride (5% ethanol) solution.
A 20% aqueous chlorhexidine solution was used as an undiluted solution of chlorhexidine solution. The chlorhexidine solution was diluted 20-fold with ethanol and purified water to prepare a 0.1% chlorhexidine (5% ethanol) solution. This solution was further diluted 5-fold with a 5% ethanol solution to prepare a 0.02% chlorhexidine (5% ethanol) solution. This solution was further diluted 10-fold with 5% ethanol to prepare a 0.002% chlorhexidine (5% ethanol) solution.
As an IPMP solution, a stock solution (4% IPMP) was obtained by dissolving 0.4 g of IPMP in 10 mL of ethanol solution. This solution was diluted 20-fold with ethanol and purified water to prepare a 0.2% IPMP (20% ethanol) solution. This solution was further diluted 2-fold with 20% ethanol to prepare a 0.1% IPMP (20% ethanol) solution. This solution was further diluted with 20% ethanol to prepare a 0.04% IPMP (20% ethanol) solution.
Two or more hours after toothbrushing, saliva was collected. Stimulated saliva secreted by mastication of Parafilm was collected, and then centrifuged at 4° C. and 2,000×g for 30 minutes. A supernatant was filtered with suction through a cellulose mixed ester membrane filter (0.1 μm, 90 mm), and the saliva was diluted with PBS to have an appropriate concentration.
100 μL of the human saliva prepared as describe above was added to a 96-well multiplate (made from polystyrene, MultiSorp, manufactured by Thermo Fisher Scientific Inc.), the multiplate was sealed, and incubation was carried out at 37° C. for 1 hour. Each well was then cleaned twice with 300 μL of PBS, 100 μL of each of the samples described above was added, the multiplate was sealed, and incubation was carried out at 37° C. for 1 hour. Subsequently, the liquid was discarded from each of the wells, the wells were cleaned twice with 300 μL of PBS, and 100 μL of the bacterial culture prepared such that OD660 was 0.125 was added to each well.

## Cc1cc(O)ccc1C(C)C [IPMP, 3-methyl-4-isopropyl methylphenol]
0.020 (w/v %) IPMP, FIG. 4
  Adhesion rate: 91.5
0.050 (w/v %) IPMP, FIG. 4
  Adhesion rate: 84.3
0.100 (w/v %) IPMP, FIG. 4
  Adhesion rate: 70.7

## CCCCCCCCCCCCCCCC[n+]1ccccc1 [CPC, cetylpyridinium chloride]
0.010 (w/v %) CPC, relative value, FIG. 1
  Adhesion rate: 92.6
0.025 (w/v %) CPC, relative value, FIG. 1
  Adhesion rate: 93.4
0.050 (w/v %) CPC, relative value, FIG. 1
  Adhesion rate: 98.9

## benzalkonium chloride
0.010 (w/v %) benzalkonium chloride, FIG. 2
  Adhesion rate: 103
0.025 (w/v %) benzalkonium chloride, FIG. 2
  Adhesion rate: 98.4
0.050 (w/v %) benzalkonium chloride, FIG. 2
  Adhesion rate: 93.8

## [H]/N=C(\N/C(=N/[H])NCCCCCCNC(=N)NC(=N)Nc1ccc(Cl)cc1)Nc1ccc(Cl)cc1 [chlorhexidine]
0.010 (w/v %) chlorhexidine, FIG. 3
  Adhesion rate: 85.9
0.025 (w/v %) chlorhexidine, FIG. 3
  Adhesion rate: 63.3
0.050 (w/v %) chlorhexidine, FIG. 3
  Adhesion rate: 62.4
